Experiment: Solubility of maleate of compound A in representative solvents
Type: physicochemical
Text: Among these solvents, a solvent having a high solubility of compound A and a salt thereof is preferred.

SMILES: OC1CN(CCCOCCc2ccc3sccc3c2)C1 [maleate of compound A, 1-(3-(2-(1-benzothiophen-5-yl)ethoxy)propyl)azetidin-3-ol]
- Solubility of maleate of compound A at 25° C. (Benzyl alcohol, 25° C.): 35 g/100 g of solvent
- Solubility of maleate of compound A at 25° C. (Butylene glycol, 25° C.): 5 g/100 g of solvent
- Solubility of maleate of compound A at 25° C. (Dimethyl sulfoxide, 25° C.): >50 g/100 g of solvent
- Solubility of maleate of compound A at 25° C. (Dipropylene glycol, 25° C.): 8 g/100 g of solvent
- Solubility of maleate of compound A at 25° C. (Ethanol, 25° C.): 3 g/100 g of solvent
- Solubility of maleate of compound A at 25° C. (N-methyl-2-pyrrolidone, 25° C.): >50 g/100 g of solvent
- Solubility of maleate of compound A at 25° C. (Polyethylene glycol 200, 25° C.): 10 g/100 g of solvent
- Solubility of maleate of compound A at 25° C. (Polyethylene glycol 400, 25° C.): 16 g/100 g of solvent
- Solubility of maleate of compound A at 25° C. (Propylene glycol, 25° C.): 10 g/100 g of solvent
